Laboratory results from US8575091B1, “Amylin analogues and pharmaceutical compositions thereof” (Novo Nordisk A/S, priority 2012, dated 2013).
Numbered stars: 1 amine (or outer) side, 2 acyl side, 3 side chain; on linkers, the order of the positions; unused ones are H or OH. Bridge positions count the residues as written; N and C are the ends. Side chains are listed from the residue outwards. Peptide text beside a SMILES is read from it. * marks the point of attachment. C20 diacid = O=C(O)CCCCCCCCCCCCCCCCCCC(=O)*; γGlu = O=C(O)[C@H](CCC(=O)[*:2])N[*:1]; AEEA = NCCOCCOCC(=O)O

Experiments:
[1] = target: T1, human calcitonin receptor (Homo sapiens, UniProt P30988); assay: Assay (VII) binding to the human calcitonin receptor (SPA, 125I-Calcitonin); conditions: read-out: hCTR bind IC50;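 note: cell membranes coupled to SPA beads, competitive displacement read by scintillation counting, IC50 derived from a one-site competition fit as a measure of receptor affinity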
T1 construct: expressed in transfected cells
T1 sequence (P30988 25-474): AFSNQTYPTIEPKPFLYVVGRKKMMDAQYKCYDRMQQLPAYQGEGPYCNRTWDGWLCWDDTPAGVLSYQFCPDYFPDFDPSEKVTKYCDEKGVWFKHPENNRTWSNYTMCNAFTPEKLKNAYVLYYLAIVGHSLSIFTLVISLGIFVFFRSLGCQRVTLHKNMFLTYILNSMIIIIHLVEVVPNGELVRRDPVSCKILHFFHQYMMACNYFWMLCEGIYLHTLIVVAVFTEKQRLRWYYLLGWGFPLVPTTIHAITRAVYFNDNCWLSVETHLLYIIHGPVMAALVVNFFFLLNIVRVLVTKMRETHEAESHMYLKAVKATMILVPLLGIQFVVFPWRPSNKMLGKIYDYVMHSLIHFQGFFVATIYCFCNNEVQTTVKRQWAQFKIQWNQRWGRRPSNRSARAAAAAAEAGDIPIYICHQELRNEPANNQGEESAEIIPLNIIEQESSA

[2] = target: T1, human calcitonin receptor; assay: Assay (II)a functional assay, human calcitonin receptor (CRE luciferase, BHK cells);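 note: luminescence from a CRE-driven luciferase reporter, read by single photon counting after cells were exposed to test samples for 3 h at 37 °C under 5% CO2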; format: cell-based; conditions: read-out: hCTR funct. EC50
[3] = Assay (III) ThT fibrillation assay for physical stability; format: physicochemical
From the text: Assay (III)—ThT Fibrillation Assays for the Assessment of Physical Stability of Protein Formulations Low physical stability of a polypeptide may lead to amyloid fibril formation, which is observed as well-ordered, thread-like macromolecular structures in the sample eventually resulting in gel formation. This has traditionally been measured by visual inspection of the sample. However, that kind of measurement is very subjective and depending on the observer. Therefore, the application of a small molecule indicator probe is much more advantageous. Thioflavin T (ThT) is such a probe and has a distinct fluorescence signature when binding to fibrils [Naiki et al. (1989) Anal. […] LeVine (1999) Methods. Enzymol. […], 274-284]. The time course for fibril formation can be described by a sigmoidal curve with the following expression [Nielsen et al. (2001) Biochemistry 40, 6036-6046]: […] Here, F is the ThT fluorescence at the time t. The constant t0 is the time needed to reach 50% of maximum fluorescence. […] Incubation and Fluorescence Measurement Incubation at given temperature, shaking and measurement of the ThT fluorescence emission were done in a Fluoroskan Ascent FL fluorescence platereader or Varioskan platereader (Thermo Labsystems). […] Fluorescence measurement was done using excitation through a 444 nm filter and measurement of emission through a 485 nm filter. […] The plate was measured every 20 minutes for a desired period of time. […] However, since full sigmodial curves in this case are not always achieved during the measurement time, the degree of fibrillation is expressed as ThT fluorescence tabulated as the mean of the samples and shown with the standard deviation at various time points. Measurement of Initial and Final Concentrations The polypeptide concentration in each of the tested formulations were measured both before application in the ThT fibrillation assay (“Initial”) and after completion of the ThT fibrillation (“After ThT assay”). Concentrations were determined by reverse HPLC methods using a pramlintide standard as a reference. […]

human amylin receptor = target: T2, human amylin receptor (Homo sapiens, UniProt O60896+P30988); assay: Assay (V) binding to the human amylin receptor (SPA, 125I-rat amylin); conditions: human amylin receptor membranes, SPA; read-out: hAmylin-R bind IC50
T2 construct: expressed in transfected cells
T2 sequence (P30988 25-474): T1 sequence (P30988 25-474)
T2 sequence (O60896 24-148 partner): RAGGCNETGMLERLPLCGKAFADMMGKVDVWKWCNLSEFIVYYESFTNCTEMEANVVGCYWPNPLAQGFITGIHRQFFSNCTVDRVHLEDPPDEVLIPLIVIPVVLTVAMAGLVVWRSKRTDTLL
In short: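 SPA competition binding on membranes from Amylin 3(a)/CRE-luc cells, 35 ng/μL membranes with 0.05 mg/well beads. Buffer 50 mM Hepes pH 7.4, 1 mM CaCl2, 5 mM MgCl2, 0.1% OA, 0.02% Tween20. IC50 from one-site competition fit as affinity measure.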

[4] = target: T3, human amylin receptor (amylin 3(a) receptor: human calcitonin receptor + RAMP-3) (Homo sapiens, UniProt O60896+P30988); assay: Assay (II)a functional assay, human amylin receptor (CRE luciferase, BHK cells); format: cell-based
T3 construct: expressed in transfected cells
T3 sequence (P30988 25-474): T1 sequence (P30988 25-474)
T3 sequence (O60896 24-148 partner): T2 sequence (O60896 24-148 partner)

SMILES | IC50 [1] | EC50 [2] | ThT pH 4.0 recovery (%) [3] | IC50 (human amylin receptor) | EC50 ([4]; functional assay, human amylin receptor, read-out: hAmylin-R funct. EC50) | Ratio hCT/hAmylin funct. ([4]; Table 6, human functional selectivity (hCTR EC50 / hAmylin-R EC50))
CC[C@H](C)[C@H](NC(=O)[C@H](C)NC(=O)CNC(=O)[C@H](Cc1ccccc1)NC(=O)[C@H](CC(N)=O)NC(=O)[C@@H]1CCCN1C(=O)[C@H](CO)NC(=O)[C@H](CO)NC(=O)[C@H](Cc1c[nH]cn1)NC(=O)[C@H](CCCNC(=N)N)NC(=O)[C@H](CC(C)C)NC(=O)[C@H](Cc1ccccc1)NC(=O)[C@H](CO)NC(=O)[C@H](C)NC(=O)[C@H](CC(C)C)NC(=O)[C@H](CCCNC(=N)N)NC(=O)[C@H](CCC(N)=O)NC(=O)[C@@H](NC(=O)[C@H](C)NC(=O)[C@@H]1CSSC[C@H](NC(=O)[C@@H](N)CCCCNC(=O)COCCOCCNC(=O)CC[C@H](NC(=O)CCCCCCCCCCCCCCCCCCC(=O)O)C(=O)O)C(=O)N[C@@H](CC(N)=O)C(=O)N[C@@H]([C@@H](C)O)C(=O)N[C@@H](C)C(=O)N[C@@H]([C@@H](C)O)C(=O)N1)[C@@H](C)O)C(=O)N1CCC[C@H]1C(=O)N[C@@H](CO)C(=O)N[C@@H](CO)C(=O)N[C@H](C(=O)N1CCC[C@H]1C(=O)N[C@H](C(=O)NCC(=O)N[C@@H](CO)C(=O)N[C@@H](CC(N)=O)C(=O)N[C@H](C(=O)N[C@@H](Cc1ccc(O)cc1)C(N)=O)[C@@H](C)O)C(C)C)[C@@H](C)O [Example 73] (H-K([AEEA-γGlu-C20 diacid])CNTATCATQRLASFLRHSSPNFGAIPSSTPVGSNTY-NH2; disulfide 2-7) | 5.38 nM | 0.961 nM | 1% | 0.104 nM | 0.085 nM | –
CC[C@H](C)[C@H](NC(=O)[C@H](C)NC(=O)CNC(=O)[C@H](Cc1ccccc1)NC(=O)[C@H](CC(N)=O)NC(=O)[C@@H]1CCCN1C(=O)[C@H](CO)NC(=O)[C@H](CO)NC(=O)[C@H](Cc1c[nH]cn1)NC(=O)[C@H](CCCNC(=N)N)NC(=O)[C@H](CC(C)C)NC(=O)[C@H](Cc1ccccc1)NC(=O)[C@H](CCCCN)NC(=O)[C@H](C)NC(=O)[C@H](CC(C)C)NC(=O)[C@H](CCCNC(=N)N)NC(=O)[C@H](CCC(N)=O)NC(=O)[C@@H](NC(=O)[C@H](C)NC(=O)[C@@H]1CSSC[C@H](NC(=O)[C@@H](N)CCCCNC(=O)COCCOCCNC(=O)CC[C@H](NC(=O)CCCCCCCCCCCCCCCCCCC(=O)O)C(=O)O)C(=O)N[C@@H](CC(N)=O)C(=O)N[C@@H]([C@@H](C)O)C(=O)N[C@@H](C)C(=O)N[C@@H]([C@@H](C)O)C(=O)N1)[C@@H](C)O)C(=O)N1CCC[C@H]1C(=O)N[C@@H](CO)C(=O)N[C@@H](CO)C(=O)N[C@H](C(=O)N1CCC[C@H]1C(=O)N[C@H](C(=O)NCC(=O)N[C@@H](CO)C(=O)N[C@@H](CC(N)=O)C(=O)N[C@H](C(=O)N[C@@H](Cc1ccc(O)cc1)C(N)=O)[C@@H](C)O)C(C)C)[C@@H](C)O [Example 74] (H-K([AEEA-γGlu-C20 diacid])CNTATCATQRLAKFLRHSSPNFGAIPSSTPVGSNTY-NH2; disulfide 2-7 (inferred); N-terminus and C-terminus assumed) | – | – | 87% | – | – | –
CC[C@H](C)[C@H](NC(=O)[C@H](C)NC(=O)CNC(=O)[C@H](Cc1ccccc1)NC(=O)[C@H](CC(N)=O)NC(=O)[C@@H]1CCCN1C(=O)[C@H](CO)NC(=O)[C@H](CO)NC(=O)[C@H](Cc1c[nH]cn1)NC(=O)[C@H](CCCNC(=N)N)NC(=O)[C@H](CC(C)C)NC(=O)[C@H](Cc1ccccc1)NC(=O)[C@H](C)NC(=O)[C@H](C)NC(=O)[C@H](CC(C)C)NC(=O)[C@H](CCCNC(=N)N)NC(=O)[C@H](CCC(N)=O)NC(=O)[C@@H](NC(=O)[C@H](C)NC(=O)[C@@H]1CSSC[C@H](NC(=O)[C@H](CCCNC(=N)N)NC(=O)CNC(=O)CC[C@H](NC(=O)CCCCCCCCCCCCCCCCCCC(=O)O)C(=O)O)C(=O)N[C@@H](CC(N)=O)C(=O)N[C@@H]([C@@H](C)O)C(=O)N[C@@H](C)C(=O)N[C@@H]([C@@H](C)O)C(=O)N1)[C@@H](C)O)C(=O)N1CCC[C@H]1C(=O)N[C@@H](CO)C(=O)N[C@@H](CO)C(=O)N[C@H](C(=O)N[C@@H](CC(N)=O)C(=O)N[C@H](C(=O)NCC(=O)N1CCC[C@H]1C(=O)N[C@@H](CC(N)=O)C(=O)N[C@H](C(=O)N[C@@H](Cc1ccc(O)cc1)C(N)=O)[C@@H](C)O)C(C)C)[C@@H](C)O [Example 103] ({C20 diacid-γGlu}-GRCNTATCATQRLAAFLRHSSPNFGAIPSSTNVGPNTY-NH2; disulfide 3-8 (inferred); C-terminus assumed) | – | – | 82% | – | – | 2.1
